Measured values as given in ChEMBL document CHEMBL2417393, “Structure guided optimization of a fragment hit to imidazopyridine inhibitors of PI3K” (Bioorg Med Chem Lett, 2013).
≈ marks a conversion by molar mass, not a printed value. Each block holds one compound with its values, some of them ahead of it.

How the values were obtained:
[1] = AUC in rat at 10 mg/kg, po; type: ADME, organism-based; design: dose 10 mg/kg, route oral; details: plasma
[2] = Half life in rat at 5 mg/kg, iv; type: ADME, organism-based; design: dose 5 mg/kg, route intravenous; details: in vivo
[3] = Volume of distribution at steady state in rat at 5 mg/kg, iv; type: ADME, organism-based; design: dose 5 mg/kg, route intravenous; details: in vivo, read-out: Vdss
[4] = Half life in rat microsomes; type: ADME, Microsome
[5] = Cmax in rat at 10 mg/kg, po; type: ADME, organism-based; design: dose 10 mg/kg, route oral; details: in vivo
[6] = Bioavailability in rat at 5 mg/kg, iv; type: ADME, organism-based; details: in vivo
[7] = Apparent permeability from apical to basolateral side in human Caco2 cells; type: ADME, cell-based; details: Caco-2
[8] = Apparent permeability from basolateral to apical side in human Caco2 cells; type: ADME, cell-based; details: Caco-2
[9] = Clearance in rat microsomes; type: ADME, Microsome
[10] = Clearance in rat at 5 mg/kg, iv; type: ADME, organism-based; design: dose 5 mg/kg, route intravenous; details: in vivo
[11] = Solubility of the compound in PBS buffer at pH 7.4; type: physicochemical
[12] = Lipophilicity, log D of the compound at pH 7.4; type: physicochemical; details: buffer

SMILES: CC(=O)Nc1nc2ccc(-c3ccc(N)nc3)cc2s1
AUC [1]: 16 µM·h
half-life [2]: 2.5 h
Vd [3]: 3.6 L/kg
half-life [4]: 3.12 h
Cmax [5]: 2500 nM
bioavailability [6]: 57%
Papp A→B [7]: 46 ×10⁻⁶ cm/s
Papp B→A [8]: 42 ×10⁻⁶ cm/s
clearance [9]: 4 µL/min/mg
clearance [10]: 19 mL/min/kg
solubility [11]: 4.2 µM (≈ 1.19 µg/mL)

SMILES: COC(=O)c1ccc2nc(NC(C)=O)sc2c1
logD [12]: 1.5

SMILES: CC(=O)Nc1ncc2cc(-c3cnc(N)c(C(F)(F)F)c3)ccc2n1
solubility [11]: 0.5 µM (≈ 0.174 µg/mL)

SMILES: Nc1ccc(-c2ccc3nc(NC(=O)CN4CCCCC4)sc3c2)cn1
solubility [11]: 7.1 µM (≈ 2.61 µg/mL)

SMILES: CC(=O)Nc1cn2cc(-c3cnc(N)c(C(F)(F)F)c3)ncc2n1
solubility [11]: 1 µM (≈ 0.336 µg/mL)

SMILES: Nc1ncc(-c2ccc3nc(NC(=O)CCCN4CCCCC4)sc3c2)cc1C(F)(F)F
solubility [11]: 56 µM (≈ 26 µg/mL)

Next, values leading:

solubility [11]: 28 µM (≈ 11.1 µg/mL)
SMILES: Nc1ccc(-c2ccc3nc(NC(=O)CCCN4CCCCC4)sc3c2)cn1

solubility [11]: 25 µM (≈ 8.73 µg/mL)
SMILES: CC(=O)Nc1nc2ccc(-c3cnc(N)c(C(F)(F)F)c3)cc2n1C

AUC [1]: 198 µM·h
half-life [2]: 3 h
Vd [3]: 0.68 L/kg
half-life [4]: 13 h
Cmax [5]: 15700 nM
bioavailability [6]: 95%
Papp A→B [7]: 40 ×10⁻⁶ cm/s
Papp B→A [8]: 40 ×10⁻⁶ cm/s
clearance [9]: 8 µL/min/mg
clearance [10]: 2 mL/min/kg
SMILES: CC(=O)Nc1cn2cc(-c3cnc(N)c(C(F)(F)F)c3)ccc2n1

solubility [11]: 1.3 µM (≈ 0.437 µg/mL)
SMILES: CC(=O)Nc1nc2ccc(-c3cnc(N)c(C(F)(F)F)c3)cc2o1

solubility [11]: 4.8 µM (≈ 1.61 µg/mL)
SMILES: CC(=O)Nc1cn2cc(-c3cnc(N)c(C(F)(F)F)c3)cnc2n1

Papp A→B [7]: 6.7 ×10⁻⁶ cm/s
Papp B→A [8]: 18 ×10⁻⁶ cm/s
SMILES: COc1cc(-c2ccc3nc(NC(C)=O)sc3c2)cnc1N

AUC [1]: 18 µM·h
half-life [4]: 13 h
Cmax [5]: 2900 nM
Papp A→B [7]: 16 ×10⁻⁶ cm/s
Papp B→A [8]: 13 ×10⁻⁶ cm/s
clearance [9]: 8 µL/min/mg
solubility [11]: 1.5 µM (≈ 0.529 µg/mL)
SMILES: CC(=O)Nc1nc2ccc(-c3cnc(N)c(C(F)(F)F)c3)cc2s1

solubility [11]: 8.3 µM (≈ 3.86 µg/mL)
SMILES: Nc1ncc(-c2ccc3nc(NC(=O)CCCN4CCOCC4)sc3c2)cc1C(F)(F)F
